Molecules are shown by their SMILES.

This assay has as its system rat model of chronic gastric ulcer. In words: Rat model of chronic gastric ulcer (anhydrous ethanol followed by aspirin). In kind it is in vivo. The note with it: omeprazole 2.6 mg/kg twice daily for 3 days. As for the experimental part: The function of the small peptides obtained in Embodiment 2 was validated in the present embodiment by using a rat model of chronic gastric ulcer.
Control group (model group): A rat model of chronic gastric ulcer model was constructed by intragastric administration of anhydrous ethanol (1 mL/200 g), followed by intragastric administration of 200 mg/kg aspirin 2 h later. The rats were administered with aspirin once daily for 4 days. At day 5, the rats were administered with an equal volume of saline.
Blank group: The rats were administered with an equal volume of saline.
Drug treatment groups: A rat model of chronic gastric ulcer was constructed as above-mentioned. At day 5, the rats were respectively administered with the rice polypeptide mixture (50 mg/kg), small peptide P1 (0.5 mg/kg), or small peptide P2 (0.5 mg/kg) twice daily for 3 days. On day 4, the rats were sacrificed and their gastric necropsy was performed.
Positive control group (omeprazole 2.6 mg/kg): A rat model of chronic gastric ulcer was constructed as above. At day 5, the rats were administered with omeprazole (2.6 mg/kg) twice daily for 3 days. On day 4, The rats were sacrificed and their gastric necropsy was performed.
Each group consisted of 10 rats. After 24 h of modeling, the rats were sacrificed to extract the gastric tissue, for measuring gastric pH, and observing changes in ulcer area via gastric tissue dissection. Liver and kidney tissues were collected for pathological section observation to assess drug safety.

Regarding `COc1ccc2[nH]c([S+]([O-])Cc3ncc(C)c(OC)c3C)nc2c1` (centres unmarked) [omeprazole, reference compound], the Ulcer index (10 rats, ratio of ulcer area to gastric mucosal tissue area, Control group 40.5 ± 5.3) stood at 7.2 ± 4.1%. Further, the Ulcer inhibition rate (percentage reduction in ulcer area compared to the Control group) worked out at 82.2%.

Source of the values: patent publication US20260337225A1, “SMALL PEPTIDE AND USE THEREOF IN MUCOSAL REPAIR” (FORREST BIO-PHARM (SHENZHEN) CO., LTD., priority 2022, published 2026).
